Experimental data taken from PubChem BioAssay (NCI).
Values joined by “and” are separate entries in the source; they are usually repeats but may differ in a detail not shown here. Equal values may be shown once.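 How tested: cells in 96-well plates exposed to compound for 48 hours at five concentrations. GI50 is the concentration that inhibits growth by half. TGI denotes the concentration required for complete inhibition of growth.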

Tests used:
Test in all cases: NCI-60 cell line screen, 48 h
A549 NSCLC = system: A549 NSCLC
SNB-75 CNS = system: SNB-75 CNS
UACC-62 melanoma = system: UACC-62 melanoma
NCI-H460 lung = system: NCI-H460 lung
RXF 393 renal = system: RXF 393 renal
OVCAR-3 ovarian = system: OVCAR-3 ovarian
SN12C renal = system: SN12C renal
OVCAR-8 ovarian = system: OVCAR-8 ovarian
786-0 renal = system: 786-0 renal
HCT-116 colon = system: HCT-116 colon

SMILES	GI50 (A549 NSCLC)	TGI (A549 NSCLC)	GI50 (SNB-75 CNS)	TGI (SNB-75 CNS)	GI50 (UACC-62 melanoma)	TGI (UACC-62 melanoma)	GI50 (NCI-H460 lung)	TGI (NCI-H460 lung)	GI50 (RXF 393 renal)	TGI (RXF 393 renal)	GI50 (OVCAR-3 ovarian)	TGI (OVCAR-3 ovarian)	GI50 (SN12C renal)	TGI (SN12C renal)	GI50 (OVCAR-8 ovarian)	TGI (OVCAR-8 ovarian)	GI50 (786-0 renal)	TGI (786-0 renal)	GI50 (HCT-116 colon)	TGI (HCT-116 colon)
CN1CCN(Cc2ccc(-c3cc4ncnc(Nc5ccc(OCc6cccc(F)c6)c(Cl)c5)c4s3)o2)CC1	3.2 µM	6.92 µM	4.29 µM	9.11 µM	4.97 µM	9.58 µM	4.56 µM	8.85 µM	3.33 µM	7.52 µM	4.23 µM	8.01 µM	3.79 µM	7.85 µM	4.53 µM	9.62 µM	4.47 µM	8.95 µM	3.62 µM	7.42 µM
Cc1[nH]c(=O)[nH]c(=O)c1N(CCF)CCCl	335 µM and 455 µM	990 µM and 1210 µM and 1850 µM	268 µM and 592 µM and 493 µM	617 µM and 1420 µM and 1010 µM	173 µM and 360 µM	419 µM and 1040 µM and 673 µM	118 µM and 264 µM and 171 µM	689 µM and 834 µM and 633 µM	128 µM and 265 µM	296 µM and 662 µM and 596 µM	147 µM and 530 µM	356 µM and 1350 µM and 972 µM	159 µM and 120 µM and 312 µM	480 µM and 641 µM and 1020 µM	210 µM and 388 µM and 217 µM	632 µM and 1020 µM and 1140 µM		1470 µM	243 µM and 491 µM	662 µM and 1570 µM and 1010 µM
COc1nc2c(OC)cccc2c(OC)c1C=O		> 100 µM		> 100 µM		> 100 µM		> 100 µM		> 100 µM		> 100 µM		> 100 µM		> 100 µM		> 100 µM		> 100 µM
CC/C=C\C[C@H](O)C/C=C1/C(=O)C=C[C@@H]1C/C=C\CCCC(=O)NC(C)C	3.24 µM	9.46 µM	8.2 µM	21 µM	1.77 µM	4.22 µM	2.43 µM	5.79 µM	2.14 µM	3.94 µM	2.63 µM	8.41 µM	2.51 µM	6.35 µM	3.04 µM	10.7 µM	2.47 µM	5.4 µM	1.73 µM	3.59 µM
CCn1c(=O)c(-c2ccn[nH]2)cc2c(C)nc(N)nc21	1.99 µM	7.41 µM	0.182 µM	2.49 µM	0.687 µM	3.54 µM	1.4 µM	> 100 µM	0.426 µM	2.47 µM	1.15 µM	> 100 µM	1.4 µM	> 100 µM	2.51 µM	61.7 µM	0.511 µM	5.59 µM	2.36 µM	> 100 µM
COc1cc(Nc2cnc3cc(C(F)(F)F)ccc3n2)cc(OC)c1OC		> 100 µM		> 100 µM		> 100 µM		> 100 µM		> 100 µM		> 100 µM		> 100 µM		> 100 µM		> 100 µM		> 100 µM
C=C1C(=O)O[C@H]2[C@H]1CC/C(COC(=O)C(=O)c1c[nH]c3ccccc13)=C\CC[C@@]1(C)O[C@@H]21	2.27 µM	6.08 µM	2.29 µM	11.1 µM	1.89 µM	4.29 µM	4.03 µM	20.7 µM	2.01 µM	3.61 µM	1.86 µM	4.63 µM	2.72 µM	7.11 µM	3.14 µM	12.7 µM	1.84 µM	3.72 µM	1.68 µM	3.24 µM
O=C(Nc1ccc(Cl)c(C(F)(F)F)c1)C(=O)C(C(=O)/C=C/c1ccccc1)C1OC(=O)c2ccccc21 (centres undefined)		> 100 µM		> 100 µM		> 100 µM		> 100 µM		> 100 µM		> 100 µM		> 100 µM		> 100 µM		> 100 µM		> 100 µM
Cn1ccnc1C(=O)/C=C/c1ccc(CC(=O)Nc2ccc(Cl)cc2)cc1	11.5 µM	> 25 µM	1.9 µM	> 25 µM	6.5 µM	> 25 µM	1.58 µM	> 25 µM	2.97 µM	> 25 µM	1.03 µM	> 25 µM	3.04 µM	> 25 µM	3.49 µM	> 25 µM	1.6 µM	> 25 µM	1.31 µM	> 25 µM
COc1cccc(-c2nn(-c3ccccc3)cc2-c2ccnc(NCCNS(=O)(=O)c3ccc(Cl)cc3)c2)c1	5.86 µM	> 100 µM	7.92 µM	> 100 µM	5.51 µM	> 100 µM	5.15 µM	> 100 µM	5.03 µM	> 100 µM	4.32 µM	> 100 µM	5.45 µM	> 100 µM	7.54 µM	> 100 µM	6.61 µM	> 100 µM	4.63 µM	> 100 µM
O=C(O)c1ccc(NC(=O)C2C(=O)C(=O)N(c3ccc(C(=O)O)cc3)C2=O)cc1 (centres undefined)		> 100 µM		> 100 µM		> 100 µM		> 100 µM		> 100 µM		> 100 µM		> 100 µM		> 100 µM		> 100 µM		> 100 µM
Cc1ccc(NC(c2ccccc2)c2ccc3cccnc3c2O)cc1 (centres undefined)		41.3 µM		19.2 µM		18.3 µM		> 25 µM		22.8 µM		7.58 µM		22.4 µM		11.1 µM		15.1 µM		13.8 µM
Nc1ccccc1C#CC#Cc1ccccc1N	13.8 µM	87.4 µM	32.3 µM	> 100 µM	11.8 µM	25.3 µM	11.8 µM	28.4 µM	25.6 µM	67.7 µM	2.85 µM	36.3 µM	14.7 µM	31.4 µM	28.7 µM	> 100 µM	13.2 µM	27 µM	6.02 µM	24.8 µM
